Data on ten compounds can be found in ChEMBL document CHEMBL5291721, “A preclinical secondary pharmacology resource illuminates target-adverse drug reaction associations of marketed drugs” (Nat Commun, 2023).

For orientation: AC50 means the midpoint of the concentration-response curve, whichever way the signal moves. Read a high AC50 as activity only at high concentration.

Experiment [1] addresses Sodium-dependent dopamine transporter (Homo sapiens, UniProt Q01959).
In experiment [2] the target is T1, Glucocorticoid receptor (Homo sapiens, UniProt P04150).
T1 sequence (P04150 whole entry): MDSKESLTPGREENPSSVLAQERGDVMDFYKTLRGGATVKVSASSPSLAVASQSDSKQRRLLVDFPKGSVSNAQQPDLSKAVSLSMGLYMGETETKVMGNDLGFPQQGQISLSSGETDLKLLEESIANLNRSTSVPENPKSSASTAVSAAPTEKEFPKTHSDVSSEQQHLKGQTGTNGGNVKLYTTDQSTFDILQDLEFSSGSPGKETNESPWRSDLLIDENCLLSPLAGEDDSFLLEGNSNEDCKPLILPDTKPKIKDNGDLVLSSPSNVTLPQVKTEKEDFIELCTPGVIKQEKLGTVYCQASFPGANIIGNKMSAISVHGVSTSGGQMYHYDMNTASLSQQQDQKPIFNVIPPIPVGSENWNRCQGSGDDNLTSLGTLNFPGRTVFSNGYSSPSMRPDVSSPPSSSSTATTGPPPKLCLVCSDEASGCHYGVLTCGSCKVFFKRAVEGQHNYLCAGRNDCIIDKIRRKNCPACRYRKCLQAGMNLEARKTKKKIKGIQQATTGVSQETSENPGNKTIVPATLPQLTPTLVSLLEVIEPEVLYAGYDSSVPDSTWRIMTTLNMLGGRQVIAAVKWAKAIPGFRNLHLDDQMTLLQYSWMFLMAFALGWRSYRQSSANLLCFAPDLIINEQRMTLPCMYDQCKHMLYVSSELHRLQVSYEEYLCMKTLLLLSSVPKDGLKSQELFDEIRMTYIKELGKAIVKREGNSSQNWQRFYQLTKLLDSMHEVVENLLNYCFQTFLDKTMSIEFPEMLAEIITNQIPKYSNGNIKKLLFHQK

The target of experiment [3] is Growth hormone secretagogue receptor type 1 (Homo sapiens, UniProt Q92847).
Growth hormone secretagogue receptor type 1, sequence (Q92847 whole entry): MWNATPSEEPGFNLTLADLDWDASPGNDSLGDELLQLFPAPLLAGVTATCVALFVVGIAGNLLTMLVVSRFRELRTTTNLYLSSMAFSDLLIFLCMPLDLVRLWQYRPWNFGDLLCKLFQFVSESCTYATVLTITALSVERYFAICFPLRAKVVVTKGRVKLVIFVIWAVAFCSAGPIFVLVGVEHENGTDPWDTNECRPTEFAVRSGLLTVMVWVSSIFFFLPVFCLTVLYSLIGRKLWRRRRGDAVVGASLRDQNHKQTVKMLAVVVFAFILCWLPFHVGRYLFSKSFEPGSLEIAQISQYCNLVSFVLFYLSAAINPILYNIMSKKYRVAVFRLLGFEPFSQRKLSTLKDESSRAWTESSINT
The target in experiment [4] is T2, Estrogen receptor (Homo sapiens, UniProt P03372).
T2 sequence (P03372 whole entry): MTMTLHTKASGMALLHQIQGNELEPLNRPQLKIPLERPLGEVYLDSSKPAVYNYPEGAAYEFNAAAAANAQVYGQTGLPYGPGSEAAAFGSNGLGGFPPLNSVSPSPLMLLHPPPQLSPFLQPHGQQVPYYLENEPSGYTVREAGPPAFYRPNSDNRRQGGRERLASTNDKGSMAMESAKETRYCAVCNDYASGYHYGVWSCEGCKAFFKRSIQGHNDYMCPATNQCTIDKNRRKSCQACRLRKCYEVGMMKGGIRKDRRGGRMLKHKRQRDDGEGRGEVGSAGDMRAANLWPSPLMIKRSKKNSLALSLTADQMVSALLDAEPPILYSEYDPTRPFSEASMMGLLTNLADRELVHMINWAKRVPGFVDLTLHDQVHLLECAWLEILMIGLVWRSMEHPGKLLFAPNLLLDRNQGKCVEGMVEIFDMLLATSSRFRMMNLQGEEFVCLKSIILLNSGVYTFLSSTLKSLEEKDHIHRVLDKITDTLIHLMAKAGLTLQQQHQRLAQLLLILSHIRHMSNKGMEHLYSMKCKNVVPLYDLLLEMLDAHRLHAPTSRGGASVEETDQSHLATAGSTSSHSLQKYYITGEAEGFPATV

Experiment [5] concerns the target T3, Muscarinic acetylcholine receptor M2 (Homo sapiens, UniProt P08172).
T3 sequence (P08172 whole entry): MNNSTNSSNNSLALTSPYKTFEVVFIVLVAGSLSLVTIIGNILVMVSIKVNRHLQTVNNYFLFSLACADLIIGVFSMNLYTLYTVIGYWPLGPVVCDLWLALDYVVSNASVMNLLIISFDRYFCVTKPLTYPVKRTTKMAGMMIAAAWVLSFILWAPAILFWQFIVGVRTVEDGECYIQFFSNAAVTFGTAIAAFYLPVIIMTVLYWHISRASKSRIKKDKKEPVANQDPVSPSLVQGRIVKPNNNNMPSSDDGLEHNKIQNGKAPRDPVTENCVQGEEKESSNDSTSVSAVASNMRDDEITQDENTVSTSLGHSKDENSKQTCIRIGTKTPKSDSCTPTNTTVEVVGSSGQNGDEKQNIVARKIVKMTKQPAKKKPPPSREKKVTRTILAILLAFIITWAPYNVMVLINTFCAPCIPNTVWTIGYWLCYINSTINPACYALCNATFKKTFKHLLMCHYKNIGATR
The experiment is classed as functional, cell-based.

Experiment [6] has as its target Voltage-gated inwardly rectifying potassium channel KCNH2 (Homo sapiens, UniProt Q12809). The experiment is classed as functional.
Experiment [7] concerns the target T4, Gastrin/cholecystokinin type B receptor (Homo sapiens, UniProt P32239).
T4 sequence (P32239 whole entry): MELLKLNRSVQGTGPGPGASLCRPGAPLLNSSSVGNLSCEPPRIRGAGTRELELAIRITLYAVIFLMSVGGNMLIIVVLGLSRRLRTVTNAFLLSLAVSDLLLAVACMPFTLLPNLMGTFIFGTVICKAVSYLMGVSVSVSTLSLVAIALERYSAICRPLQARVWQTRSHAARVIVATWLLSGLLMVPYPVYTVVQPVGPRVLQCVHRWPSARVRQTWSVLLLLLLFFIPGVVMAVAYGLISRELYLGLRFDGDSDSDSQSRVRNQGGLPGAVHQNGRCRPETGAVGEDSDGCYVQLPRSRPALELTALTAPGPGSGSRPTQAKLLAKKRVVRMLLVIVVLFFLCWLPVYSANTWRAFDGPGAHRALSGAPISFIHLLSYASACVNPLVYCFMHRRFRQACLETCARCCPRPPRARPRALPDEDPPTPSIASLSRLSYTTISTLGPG

In experiment [8] the target is Beta-1 adrenergic receptor (Homo sapiens, UniProt P08588). The class given is functional.
Beta-1 adrenergic receptor, sequence (P08588 whole entry): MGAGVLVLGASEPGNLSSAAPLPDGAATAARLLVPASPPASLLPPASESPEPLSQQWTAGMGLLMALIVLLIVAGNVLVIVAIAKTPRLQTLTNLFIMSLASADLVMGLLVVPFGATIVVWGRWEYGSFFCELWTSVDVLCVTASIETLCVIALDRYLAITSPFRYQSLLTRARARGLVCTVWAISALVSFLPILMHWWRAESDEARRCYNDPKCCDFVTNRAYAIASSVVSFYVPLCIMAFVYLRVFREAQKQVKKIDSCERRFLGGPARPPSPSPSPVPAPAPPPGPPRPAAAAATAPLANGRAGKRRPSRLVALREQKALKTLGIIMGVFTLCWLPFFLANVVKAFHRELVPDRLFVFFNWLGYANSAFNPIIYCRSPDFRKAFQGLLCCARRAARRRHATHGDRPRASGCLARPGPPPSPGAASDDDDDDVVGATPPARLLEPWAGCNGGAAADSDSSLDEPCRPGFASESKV
Experiment [9] has as its target D(1A) dopamine receptor (Homo sapiens, UniProt P21728). The class given is functional, cell-based.
For experiment [10], the target named is 3',5'-cyclic-AMP phosphodiesterase 4D (Homo sapiens, UniProt Q08499). The experiment is classed as functional.
3',5'-cyclic-AMP phosphodiesterase 4D, sequence (Q08499 whole entry): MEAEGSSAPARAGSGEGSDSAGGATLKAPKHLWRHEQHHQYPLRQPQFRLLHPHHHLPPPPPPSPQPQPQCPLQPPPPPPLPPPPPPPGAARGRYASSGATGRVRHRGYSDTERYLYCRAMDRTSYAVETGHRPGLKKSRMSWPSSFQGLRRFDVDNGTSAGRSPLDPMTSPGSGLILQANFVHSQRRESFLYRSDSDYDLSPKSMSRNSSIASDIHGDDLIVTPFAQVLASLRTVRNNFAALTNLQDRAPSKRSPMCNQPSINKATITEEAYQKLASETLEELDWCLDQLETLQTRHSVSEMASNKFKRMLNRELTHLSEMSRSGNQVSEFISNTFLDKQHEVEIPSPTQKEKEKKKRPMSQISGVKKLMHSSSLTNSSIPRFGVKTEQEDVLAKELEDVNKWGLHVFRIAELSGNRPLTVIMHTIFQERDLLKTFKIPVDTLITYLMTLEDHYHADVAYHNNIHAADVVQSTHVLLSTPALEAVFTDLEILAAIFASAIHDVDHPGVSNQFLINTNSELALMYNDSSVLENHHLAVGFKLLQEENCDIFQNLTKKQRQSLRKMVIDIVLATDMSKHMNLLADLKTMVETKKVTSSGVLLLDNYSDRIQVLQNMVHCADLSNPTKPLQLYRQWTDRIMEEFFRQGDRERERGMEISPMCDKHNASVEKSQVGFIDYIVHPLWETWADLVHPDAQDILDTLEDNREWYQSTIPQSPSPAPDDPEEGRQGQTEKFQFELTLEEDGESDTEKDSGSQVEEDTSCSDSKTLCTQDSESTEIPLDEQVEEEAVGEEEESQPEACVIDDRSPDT
For experiment [11], the target named is 5-hydroxytryptamine receptor 2B (Homo sapiens, UniProt P41595). The experiment is classed as functional, cell-based.
5-hydroxytryptamine receptor 2B, sequence (P41595 whole entry): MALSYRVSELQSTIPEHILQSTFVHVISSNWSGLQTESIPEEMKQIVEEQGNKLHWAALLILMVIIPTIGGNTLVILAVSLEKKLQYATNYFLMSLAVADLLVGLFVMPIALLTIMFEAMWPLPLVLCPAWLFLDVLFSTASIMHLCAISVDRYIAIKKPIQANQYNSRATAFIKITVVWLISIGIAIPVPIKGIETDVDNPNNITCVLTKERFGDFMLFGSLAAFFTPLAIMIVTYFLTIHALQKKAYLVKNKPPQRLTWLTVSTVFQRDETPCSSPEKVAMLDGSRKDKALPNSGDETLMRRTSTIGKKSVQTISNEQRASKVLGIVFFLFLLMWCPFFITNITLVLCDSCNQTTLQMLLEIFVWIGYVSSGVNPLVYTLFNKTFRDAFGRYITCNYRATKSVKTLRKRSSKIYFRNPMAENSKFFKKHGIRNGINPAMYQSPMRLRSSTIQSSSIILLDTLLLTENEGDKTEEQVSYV
Further: assay procedure not described here.

D(1A) dopamine receptor, sequence (P21728 whole entry): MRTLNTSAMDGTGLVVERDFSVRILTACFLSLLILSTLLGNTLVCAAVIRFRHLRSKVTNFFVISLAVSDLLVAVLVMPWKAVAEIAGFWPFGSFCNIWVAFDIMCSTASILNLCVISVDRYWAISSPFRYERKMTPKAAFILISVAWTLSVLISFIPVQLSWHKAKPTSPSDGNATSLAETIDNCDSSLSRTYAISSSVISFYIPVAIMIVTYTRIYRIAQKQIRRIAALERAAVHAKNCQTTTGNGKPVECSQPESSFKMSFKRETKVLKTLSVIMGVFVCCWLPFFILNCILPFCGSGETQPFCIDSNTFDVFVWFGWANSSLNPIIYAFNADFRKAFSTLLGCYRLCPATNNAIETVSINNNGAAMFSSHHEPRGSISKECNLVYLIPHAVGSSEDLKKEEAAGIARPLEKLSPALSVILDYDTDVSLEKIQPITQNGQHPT
Voltage-gated inwardly rectifying potassium channel KCNH2, sequence (Q12809 whole entry): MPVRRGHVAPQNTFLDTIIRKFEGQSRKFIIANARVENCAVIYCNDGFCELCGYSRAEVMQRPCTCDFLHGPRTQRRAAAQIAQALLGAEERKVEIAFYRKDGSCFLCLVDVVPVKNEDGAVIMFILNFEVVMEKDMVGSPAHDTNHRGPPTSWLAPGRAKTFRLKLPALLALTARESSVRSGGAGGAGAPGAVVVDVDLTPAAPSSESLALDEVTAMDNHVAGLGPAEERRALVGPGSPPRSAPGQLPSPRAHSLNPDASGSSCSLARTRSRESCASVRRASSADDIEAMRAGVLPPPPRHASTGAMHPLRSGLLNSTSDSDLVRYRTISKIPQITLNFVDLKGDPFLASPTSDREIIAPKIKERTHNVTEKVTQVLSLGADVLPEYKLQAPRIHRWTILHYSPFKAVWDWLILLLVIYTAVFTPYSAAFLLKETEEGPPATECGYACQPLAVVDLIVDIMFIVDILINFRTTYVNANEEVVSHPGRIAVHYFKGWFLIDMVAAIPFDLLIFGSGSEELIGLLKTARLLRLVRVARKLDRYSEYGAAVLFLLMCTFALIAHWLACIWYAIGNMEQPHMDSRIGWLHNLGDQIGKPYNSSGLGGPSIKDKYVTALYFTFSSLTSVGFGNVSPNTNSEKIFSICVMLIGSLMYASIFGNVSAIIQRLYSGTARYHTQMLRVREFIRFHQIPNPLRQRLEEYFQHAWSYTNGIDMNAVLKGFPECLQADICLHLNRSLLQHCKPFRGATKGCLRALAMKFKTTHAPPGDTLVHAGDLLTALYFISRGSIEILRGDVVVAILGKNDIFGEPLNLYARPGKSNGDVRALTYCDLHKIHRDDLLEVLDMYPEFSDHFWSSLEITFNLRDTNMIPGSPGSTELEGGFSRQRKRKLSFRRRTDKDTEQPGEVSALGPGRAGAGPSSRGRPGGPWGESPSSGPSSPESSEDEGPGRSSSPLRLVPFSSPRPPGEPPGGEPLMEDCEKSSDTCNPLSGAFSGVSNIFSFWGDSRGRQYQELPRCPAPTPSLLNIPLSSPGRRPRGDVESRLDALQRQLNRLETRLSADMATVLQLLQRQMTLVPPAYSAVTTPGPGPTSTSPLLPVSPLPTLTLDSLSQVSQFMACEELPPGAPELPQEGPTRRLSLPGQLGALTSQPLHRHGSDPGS
Sodium-dependent dopamine transporter, sequence (Q01959 whole entry): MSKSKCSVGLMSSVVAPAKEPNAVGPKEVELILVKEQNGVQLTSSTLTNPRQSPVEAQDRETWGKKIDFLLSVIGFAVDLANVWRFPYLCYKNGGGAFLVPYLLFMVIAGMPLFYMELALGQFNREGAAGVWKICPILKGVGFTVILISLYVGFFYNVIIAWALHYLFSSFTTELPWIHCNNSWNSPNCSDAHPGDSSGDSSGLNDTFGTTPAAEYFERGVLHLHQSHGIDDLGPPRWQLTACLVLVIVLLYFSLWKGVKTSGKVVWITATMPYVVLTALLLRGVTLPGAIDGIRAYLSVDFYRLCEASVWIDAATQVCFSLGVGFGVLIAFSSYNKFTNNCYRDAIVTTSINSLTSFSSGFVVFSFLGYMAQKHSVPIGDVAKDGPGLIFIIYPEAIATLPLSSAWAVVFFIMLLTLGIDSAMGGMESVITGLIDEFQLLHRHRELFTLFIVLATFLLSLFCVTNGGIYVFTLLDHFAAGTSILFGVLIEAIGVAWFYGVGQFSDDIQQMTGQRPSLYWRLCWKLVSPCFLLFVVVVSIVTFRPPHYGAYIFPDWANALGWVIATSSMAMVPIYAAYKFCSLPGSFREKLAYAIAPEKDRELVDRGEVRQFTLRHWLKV

For `CCN(CC)C(=O)Nc1ccc(OCC(O)CNC(C)(C)C)c(C(C)=O)c1` (stereo not given) [CELIPROLOL], the AC50 was above 30 µM in experiment [1]; above 30 µM in experiment [2]; above 30 µM in experiment [3]; above 30 µM in experiment [4]; above 30 µM in experiment [5]; 17 µM in experiment [6]. Besides, the AC50 in [7] was above 30 µM; in [8], 0.076 µM; in experiment [9], above 30 µM; in [10], above 30 µM; in [11], above 30 µM.

Regarding `CCN(CC)CCN1C(=O)CN=C(c2ccccc2F)c2cc(Cl)ccc21` [FLURAZEPAM], the AC50 in experiment [1] is above 30 µM; in [2] it was above 30 µM; in experiment [3] it was 22.9 µM; in [4], above 30 µM; in [5], above 10 µM; in [6] it was 0.896 µM. Moreover, the AC50 in [7] is above 30 µM; in experiment [8], above 10 µM; in [9], above 30 µM; in [10], above 30 µM; in experiment [11] it was above 10 µM.

Turning to `CCCCCC(=O)O[C@]1(C(C)=O)CC[C@H]2[C@@H]3CCC4=CC(=O)CC[C@]4(C)[C@H]3CC[C@@]21C` [HYDROXYPROGESTERONE CAPROATE], the AC50 in experiment [1] is 21.3 µM; in experiment [2] it was 0.007 µM; in [3], above 30 µM; in [4], above 30 µM; in [5] it was above 30 µM; in [6] it was above 30 µM. Also, the AC50 in [7] is above 30 µM; in experiment [8], above 30 µM; in [9], above 30 µM; in experiment [10], 25 µM; in [11], above 30 µM.

For `O=C(O)c1ccccc1Nc1cc(Cl)ccc1C(=O)O` [LOBENZARIT], the AC50 in experiment [1], in [2], in experiment [3], in experiment [4], in experiment [5] and in experiment [6] was above 30 µM each time. The AC50 in experiment [7] was above 10 µM; in [8], above 30 µM; in experiment [9] it was above 30 µM; in [10], above 30 µM; in [11], above 30 µM.

With `Cc1ncc2n1-c1ccc(Cl)cc1C(c1ccccc1F)=NC2` [MIDAZOLAM], the AC50 is above 30 µM in experiment [1]; above 30 µM in experiment [2]; above 30 µM in experiment [3]; above 30 µM in [4]; above 10 µM in experiment [5]; above 30 µM in experiment [6]. Besides, the AC50 in [7] is above 30 µM; in experiment [8] it was above 10 µM; in experiment [9] it was above 30 µM; in experiment [10], 10 µM; in experiment [11] it was above 10 µM.

Consider `C#CCOc1ccc(N)cc1C(=O)NCCCC` [PARSALMIDE], for which the AC50 in experiment [1], in [2], in [3], in experiment [4], in experiment [5] and in experiment [6] was above 30 µM each time. The AC50 in experiment [7], in experiment [8], in [9], in experiment [10] and in experiment [11] was above 30 µM in each case.

Take `COc1ccc2nc3cc(Cl)ccc3c(Nc3cc(CN4CCCC4)c(O)c(CN4CCCC4)c3)c2n1` [PYRONARIDINE]: the AC50 is 11 µM in experiment [1]; above 30 µM in [2]; 26 µM in experiment [3]; above 30 µM in [4]; 15 µM in experiment [5]; 0.28 µM in [6]. Moreover, the AC50 in [7] was above 30 µM; in [8], above 30 µM; in [9], above 30 µM; in experiment [10], 24 µM; in experiment [11], above 30 µM.

With `CC1=C(C)C(=O)C(C(CCCCCC(=O)O)c2ccccc2)=C(C)C1=O` (stereo not given) [SERATRODAST], the AC50 in [1], in experiment [2], in [3], in [4], in experiment [5] and in [6] was above 30 µM throughout. Further, the AC50 in experiment [7] was above 30 µM; in experiment [8], above 30 µM; in experiment [9] it was above 30 µM; in experiment [10] it was 22 µM; in experiment [11], above 30 µM.

For `CCN(CC)CCNC(=O)c1cc(S(C)(=O)=O)ccc1OC` [TIAPRIDE], the AC50 is above 30 µM in experiment [1]; above 30 µM in experiment [2]; above 30 µM in experiment [3]; above 30 µM in [4]; above 30 µM in experiment [5]; 8.5 µM in experiment [6]. In addition, the AC50 was above 30 µM in experiment [7]; above 30 µM in [8]; above 30 µM in experiment [9]; above 30 µM in [10]; 29 µM in experiment [11].

Turning to `NC1CCN(c2nc3c(cc2F)c(=O)c(C(=O)O)cn3-c2ccc(F)cc2F)C1` (stereo not given) [TOSUFLOXACIN], the AC50 in experiment [1], in experiment [2], in experiment [3], in [4], in experiment [5] and in [6] was above 30 µM throughout. For the same compound, the AC50 in [7], in [8], in experiment [9], in experiment [10] and in experiment [11] was above 30 µM throughout.
